In US20220155322A1, “USE OF NATRIURETIC PEPTIDES TO ASSESS AND TREAT ACUTE KIDNEY INJURY” (Mayo Foundation for Medical Education and Research, priority 2019, published 2022):

Columns and labels:
Assay type in all cases: cell-based
[1] = system: human primary renal proximal tubular epithelial cells (HRPTC); test: Oil immersion induced hypoxia/reoxygenation (H/R) apoptosis, Caspase 3/7 IncuCyte live imaging
Protocol: Oil Immersion Induced Hypoxia/Reoxygenation in vitro: HRPTC (ScienCell Research Laboratories; Carlsbad, Calif.) were seeded in 96-well plates and cultured for 1 day until 70-80% confluence. Passages 3-5 were used for experiments. Caspase 3/7 green apoptosis assay agent (Essen BioScience; Ann Arbor, Mich.) was added to the culture medium for detection of apoptosis. Plates were then transferred to a time-lapsed, live imaging system IncuCyte (Essen BioScience) for apoptosis monitoring for a total of 24 hours. H/R in cells was mimicked with mineral oil (Sigma, St Louis, Mo.) immersion (Meldrum et al., J Surg Res, 99:288-293, 2001). Cells were immersed in oil for 2 hours, washed twice, and placed in fresh medium containing vehicle (H/R group) or drugs. ANP, BNP, and CRRL269 were used at concentrations of 10^−8, 10^−7, or 10^−6 M. PKG (an important cGMP binding protein) activating analogue 8-pCPT-cGMP (Sigma; St. Louis, Mo.), which is specific for PKG and has low affinity for phosphodiesterases, was used at concentrations of 10^−6, 10^−5, or 10^−4 M. Cells were treated with 10^−6-, 5×10^−6-, or 1.5×10^−5 M PKG inhibitor KT-5823 (Abcam; Cambridge, Mass.) for 30 minutes before 10^−6 M CRRL269 was added. Cells without H/R stimulation were labeled as the negative control (Neg Ctrl) group. Apoptosis signals (e.g., apoptosis object counts) were analyzed with software provided by IncuCyte.

[2] = system: human primary aortic vascular smooth muscle cells (HASMC); test: Intracellular calcium under ANGII stimulation (Fura-2); conditions: pretreatment at 10^−9 or 10^−7 M for 5 minutes, ANGII 10^−8 or 10^−7 M
Protocol: Measurements of Intracellular Calcium in Vascular Smooth Muscle Cells: HASMC (ScienCell Research Laboratories; Carlsbad, Calif.) were cultured and maintained as instructed by the manufacturer. Cells at passage 4 or 5 were used for experiments. Calcium imaging was performed as described elsewhere (Chai et al., Cardiovasc Res, 100:151-159, 2013). Briefly, cells were seeded on a 25 mm round cover glass (Fisher Scientific; Pittsburgh, Pa.) at a density of 5×10^4 cells per slide. The slides had been pretreated with 0.5 N NaOH for 8 hours, rinsed with water, and sterilized before use. After overnight culturing, the slides with cells were assembled in a MS-02 Chamber (ALA Scientific Instrument; Farmingdale, N.Y.) and loaded with 3 μM fura-2 AM (Invitrogen; Carlsbad, Calif.) for 30 minutes in a 37° C. incubator. The chamber was then placed on the stage of an inverted Olympus IX71 microscope (Olympus America Inc.; Waltham, Mass.). The cells were maintained in 1 mL HASMC medium and treated with or without ANP, BNP, or CRRL269 at concentration of 10^−9 or 10^−7 M for 5 minutes before perfused with 5 mL medium containing ANGII (10^−8 or 10^−7 M). Intracellular Ca2^+ fluorescence signals were measured as a ratio of fluorescence intensities at 510 nm from excitations of 340/380 nm, using a Hamamatsu ORCA-R2 CCD camera with a Sutter LB-LS/17 light source. Baseline fluorescence was recorded after 5 minutes of treatment, and fluorescence images were acquired continuously during the ANGII perfusion. Background fluorescence was subtracted and the calcium signal (F) was normalized to baseline fluorescence (FO) and expressed as a ratio (F/FO) using MetaFluor software (Olympus America Inc.).

[3] = system: human renal fibroblasts (HRF); test: Human renal fibroblast proliferation by cell counting; conditions: CNP at 10^−7 M every 24 hours, cell count at 72 hours
Protocol: Human Renal Fibroblasts Proliferation by Cell Counting: Human renal fibroblasts (HRF, Cell Biologics; Chicago, Ill.) were counted and seeded into 48-well plates with complete medium, and then incubated at 37° C., 5% CO2 overnight. The culture medium was replaced with fresh medium containing PBS or CNP at concentrations of 10^−8 or 10^−7 M, and cells were cultured for 72 hours. Fresh CNP was added at 24 and 48 hours. At 72 hours, HRF were trypsinized, stained with 0.2% trypan blue, and counted using a Cedex XS Analyzer (Roche; Indianapolis, Ind.).

## Nc1nc2c(nc(Sc3ccc(Cl)cc3)n2C2O[C@@H]3COP(=O)(O)O[C@H]3[C@H]2O)c(=O)[nH]1 (stereo in doubt) [8-pCPT-cGMP, reference compound]
[1]; 8-pCPT-cGMP at 10^−6 and 10^−5 M
  apoptosis inhibition in HRPTC after H/R: mimicked the apoptosis inhibition

## CC[C@H](C)[C@@H]1NC(=O)[C@H](CCCNC(=N)N)NC(=O)[C@H](CC(=O)O)NC(=O)[C@H](CCSC)NC(=O)[C@H](CCCNC(=N)N)NC(=O)CNC(=O)CNC(=O)[C@H](Cc2ccccc2)NC(=O)[C@@H](NC(=O)[C@H](CO)NC(=O)[C@H](CO)NC(=O)[C@H](CCCNC(=N)N)NC(=O)[C@H](CCCNC(=N)N)NC(=O)[C@H](CC(C)C)NC(=O)[C@@H](N)CO)CSSC[C@@H](C(=O)N[C@@H](CC(N)=O)C(=O)N[C@@H](CO)C(=O)N[C@@H](Cc2ccccc2)C(=O)N[C@@H](CCCNC(=N)N)C(=O)N[C@@H](Cc2ccc(O)cc2)C(=O)O)NC(=O)CNC(=O)[C@H](CC(C)C)NC(=O)CNC(=O)[C@H](CO)NC(=O)[C@H](CCC(N)=O)NC(=O)[C@H](C)NC(=O)CNC1=O [ANP, atrial natriuretic peptide, reference compound]
[2]
  Ca2^+ enhancement by ANGII in HASMC: suppressed

## COC(=O)[C@@]1(OC)C[C@H]2O[C@]1(C)n1c3ccccc3c3c4c(c5c6ccccc6n2c5c31)C(=O)N(C)C4 [KT-5823, reference compound]
[1]; HRPTC, H/R, KT-5823 30 minutes before 10^−6 M CRRL269
  effect on antiapoptotic effects induced by CRRL269: abrogated

## B-type natriuretic peptide [BNP, reference compound]
[2]
  Ca2^+ enhancement by ANGII in HASMC: suppressed

## C-type natriuretic peptide (GLSKGCFGLKLDRIGSMSGLGC; listed as Homo sapiens) [CNP]
[3]
  human renal fibroblast (HRF) proliferation: suppressed
